According to patent publication US20080200448A1, “New Pyridine Analogues VIII 518” (ASTRAZENECA AB, priority 2007, published 2008):

Biological target: T1, P2Y12 receptor (Homo sapiens, UniProt Q9H244)
T1 construct: expressed in transfected cells; host or cells: CHO cells (membrane preparation)
Experiment: Functional inhibition of 2-Me-S-ADP induced P2Y12 signalling (35S-GTPγS binding, cell membranes)
Format: biochemical
Details: 35S-GTPγS assay, membranes, EC80 concentration of 2-methyl-thio-adenosine diphosphate, 30° C. for 45 min; read-out: GTPγS (IC50 μM)
Method: Functional inhibition of- the P2Y12 receptor can be measured by in vitro assays using cell membranes from P2Y12 transfected CHO-cells, the methodology is indicated below.
Functional inhibition of 2-Me-S-ADP induced P2Y12 signalling: 5 μg of membranes were diluted in 200 μl of 200 mM NaCl, 1 mM MgCl2, 50 mM HEPES (pH 7.4), 0.01% BSA, 30 μg/ml saponin and 10 μM GDP. To this was added an EC80 concentration of agonist (2-methyl-thio-adenosine diphosphate), the required concentration of test compound and 0.1 μCi ^35S-GTPγS. The reaction was allowed to proceed at 30° C. for 45 min. Samples were then transferred on to GF/B filters using a cell harvester and washed with wash buffer (50 mM Tris (pH 7.4), 5 mM MgCl2, 50 mM NaCl). Filters were then covered with scintilant and counted for the amount of ^35S-GTPγS retained by the filter. Maximum activity was that determined in the presence of the agonist and minimum activity in the absence of the agonist following subtraction of the value determined for non-specific activity. The effect of compounds at various concentrations was plotted according to the equation
y=A+((B−A)/(1+((C/x)̂D)))
and IC50 estimated where A is the bottom plateau of the curve i.e. the final minimum y value B is the top of the plateau of the curve i.e. the final maximum y value C is the x value at the middle of the curve. This represents the log EC50 value when A+B=100 D is the slope factor. x is the original known x values. Y is the original known y values.

T1 sequence (Q9H244 whole entry): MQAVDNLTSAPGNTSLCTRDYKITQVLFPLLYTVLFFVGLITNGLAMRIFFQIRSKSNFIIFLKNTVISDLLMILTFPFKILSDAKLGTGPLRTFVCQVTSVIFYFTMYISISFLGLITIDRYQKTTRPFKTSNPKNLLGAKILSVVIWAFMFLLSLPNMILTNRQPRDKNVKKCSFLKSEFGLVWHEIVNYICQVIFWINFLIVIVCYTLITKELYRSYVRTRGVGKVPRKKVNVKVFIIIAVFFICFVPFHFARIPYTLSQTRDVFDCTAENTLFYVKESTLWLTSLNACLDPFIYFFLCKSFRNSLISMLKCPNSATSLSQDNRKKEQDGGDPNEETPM

Compound	IC50 [µM]
CCOC(=O)c1cc(C#N)c(N2CCC(C(=O)NS(=O)(=O)Cc3ccc(F)cc3Cl)CC2)nc1CN1CCCC1=O [Example 43, Ethyl 6-(4-{[(2-chloro-4-fluorobenzyl)sulfonyl]carbamoyl}piperidin-1-yl)-5-cyano-2-[(2-oxopyrrolidin-1-yl)methyl]nicotinate]	0.018
CCOC(=O)c1cc(C#N)c(N2CCC(C(=O)NS(=O)(=O)Cc3ccc(Cl)cc3F)CC2)nc1CN1CCCC1=O [Example 44, Ethyl 6-(4-{[(4-chloro-2-fluorobenzyl)sulfonyl]carbamoyl}piperidin-1-yl)-5-cyano-2-[(2-oxopyrrolidin-1-yl)methyl]nicotinate]	0.01
Cc1ccc(CS(=O)(=O)NC(=O)C2CCN(c3nc(CN4CCCC4=O)c(C(=O)OC(C)C)cc3C#N)CC2)cc1 [Example 45, Isopropyl 5-cyano-6-(4-{[(4-methylbenzyl)sulfonyl]carbamoyl}piperidin-1-yl)-2-[(2-oxopyrrolidin-1-yl)methyl]nicotinate]	0.019
CC(C)OC(=O)c1cc(C#N)c(N2CCC(C(=O)NS(=O)(=O)Cc3ccc(F)cc3F)CC2)nc1CN1CCCC1=O [Example 46, Isopropyl 5-cyano-6-(4-{[(2,4-difluorobenzyl)sulfonyl]carbamoyl}piperidin-1-yl)-2-[(2-oxopyrrolidin-1-yl)methyl]nicotinate]	0.021
CC(C)OC(=O)c1cc(C#N)c(N2CCC(C(=O)NS(=O)(=O)CC3CCCC3)CC2)nc1CN1CCCC1=O [Example 47, Isopropyl 5-cyano-6-(4-{[(cyclopentylmethyl)sulfonyl]carbamoyl}piperidin-1-yl)-2-[(2-oxopyrrolidin-1-yl)methyl]nicotinate]	0.065
CC(C)OC(=O)c1cc(C#N)c(N2CCC(C(=O)NS(=O)(=O)Cc3ccc(Cl)cc3)CC2)nc1CN1CCCC1=O [Example 48, Isopropyl 6-(4-{[(4-chlorobenzyl)sulfonyl]carbamoyl}piperidin-1-yl)-5-cyano-2-[(2-oxopyrrolidin-1-yl)methyl]nicotinate]	0.012
CC(C)OC(=O)c1cc(C#N)c(N2CCC(C(=O)NS(=O)(=O)Cc3ccc(F)cc3Cl)CC2)nc1CN1CCCC1=O [Example 49, Isopropyl 6-(4-{[(2-chloro-4-fluorobenzyl)sulfonyl]carbamoyl}piperidin-1-yl)-5-cyano-2-[(2-oxopyrrolidin-1-yl)methyl]nicotinate]	0.066
CC(C)OC(=O)c1cc(C#N)c(N2CCC(C(=O)NS(=O)(=O)Cc3ccc(C(F)(F)F)cc3)CC2)nc1CN1CCCC1=O [Example 50, Isopropyl 5-cyano-2-[(2-oxopyrrolidin-1-yl)methyl]-6-[4-({[4-(trifluoromethyl)benzyl]sulfonyl}carbamoyl)piperidin-1-yl]nicotinate]	0.02
CC(C)OC(=O)c1cc(C#N)c(N2CCC(C(=O)NS(=O)(=O)Cc3ccc(F)cc3)CC2)nc1CN1CCCC1=O [Example 51, Isopropyl 5-cyano-6-(4-{[(4-fluorobenzyl)sulfonyl]carbamoyl}piperidin-1-yl)-2-[(2-oxopyrrolidin-1-yl)methyl]nicotinate]	0.023
CC(C)OC(=O)c1cc(C#N)c(N2CCC(C(=O)NS(=O)(=O)Cc3ccc(Cl)cc3F)CC2)nc1CN1CCCC1=O [Example 52, Isopropyl 6-(4-{[(4-chloro-2-fluorobenzyl)sulfonyl]carbamoyl}piperidin-1-yl)-5-cyano-2-[(2-oxopyrrolidin-1-yl)methyl]nicotinate]	0.014
CC(C)OC(=O)c1cc(C#N)c(N2CCC(C(=O)NS(=O)(=O)Cc3ccc(Cl)cc3Cl)CC2)nc1CN1CCCC1=O [Example 53, Isopropyl 5-cyano-6-(4-{[(2,4-dichlorobenzyl)sulfonyl]carbamoyl}piperidin-1-yl)-2-[(2-oxopyrrolidin-1-yl)methyl]nicotinate]	0.032
CC1CCC(CS(=O)(=O)NC(=O)C2CCN(c3nc(CN4CCCC4=O)c(C(=O)OC(C)C)cc3C#N)CC2)CC1 (stereo not drawn) [Example 54, Isopropyl 5-cyano-6-[4-({[(4-methylcyclohexyl)methyl]sulfonyl}carbamoyl)piperidin-1-yl]-2-[(2-oxopyrrolidin-1-yl)methyl]nicotinate]	0.104
CCOC(=O)c1cc(C#N)c(N2CCC(C(=O)NS(=O)(=O)Nc3ccccc3)CC2)nc1CN1CCCC1=O [Example 55, Ethyl 6-{4-[(anilinosulfonyl)carbamoyl]piperidin-1-yl}-5-cyano-2-[(2-oxopyrrolidin-1-yl)methyl]nicotinate]	0.03
CCOC(=O)c1cc(C#N)c(N2CCC(C(=O)NS(=O)(=O)Cc3ccccc3)CC2)nc1CN1CCCCC1=O [Example 56, Ethyl 6-{4-[(benzylsulfonyl)carbamoyl]piperidin-1-yl}-5-cyano-2-[(2-oxopiperidin-1-yl)methyl]nicotinate]	0.03
CCOC(=O)c1cc(C#N)c(N2CCC(C(=O)NS(=O)(=O)N(C)c3ccccc3)CC2)nc1CN1CCCC1=O [Example 57, Ethyl 5-cyano-6-[4-({[methyl(phenyl)amino]sulfonyl}carbamoyl)piperidin-1-yl]-2-[(2-oxopyrrolidin-1-yl)methyl]nicotinate]	0.013
CCOC(=O)c1cc(C#N)c(N2CCC(C(=O)NS(=O)(=O)CC3CCC(C)CC3)CC2)nc1CN1CCCCC1=O (stereo not drawn) [Example 58, Ethyl 5-cyano-6-[4-({[(4-methylcyclohexyl)methyl]sulfonyl}carbamoyl)piperidin-1-yl]-2-[(2-oxopiperidin-1-yl)methyl]nicotinate]	0.164
CCOC(=O)c1cc(C#N)c(N2CCC(C(=O)NS(=O)(=O)Cc3ccc(C(F)(F)F)cc3)CC2)nc1CN1CCCCC1=O [Example 59, Ethyl 5-cyano-2-[(2-oxopiperidin-1-yl)methyl]-6-[4-({[4-(trifluoromethyl)benzyl]sulfonyl}carbamoyl)piperidin-1-yl]nicotinate]	0.029
CCOC(=O)c1cc(C#N)c(N2CCC(C(=O)NS(=O)(=O)CC3CCCC3)CC2)nc1CN1CCCCC1=O [Example 60, Ethyl 5-cyano-6-(4-{[(cyclopentylmethyl)sulfonyl]carbamoyl}piperidin-1-yl)-2-[(2-oxopiperidin-1-yl)methyl]nicotinate]	0.111
CCOC(=O)c1cc(C#N)c(N2CCC(C(=O)NS(=O)(=O)CC3CCCCC3)CC2)nc1CN1CCCCC1=O [Example 61, Ethyl 5-cyano-6-(4-{[(cyclohexylmethyl)sulfonyl]carbamoyl}piperidin-1-yl)-2-[(2-oxopiperidin-1-yl)methyl]nicotinate]	0.061
CCOC(=O)c1cc(C#N)c(N2CCC(C(=O)NS(=O)(=O)Cc3ccc(F)cc3)CC2)nc1CN1CCCCC1=O [Example 62, Ethyl 5-cyano-6-(4-{[(4-fluorobenzyl)sulfonyl]carbamoyl}piperidin-1-yl)-2-[(2-oxopiperidin-1-yl)methyl]nicotinate]	0.148
CCOC(=O)c1cc(C#N)c(N2CCC(C(=O)NS(=O)(=O)Cc3ccc(C)cc3)CC2)nc1CN1CCCCC1=O [Example 63, Ethyl 5-cyano-6-(4-{[(4-methylbenzyl)sulfonyl]carbamoyl}piperidin-1-yl)-2-[(2-oxopiperidin-1-yl)methyl]nicotinate]	0.014
CCOC(=O)c1cc(C#N)c(N2CCC(C(=O)NS(=O)(=O)Nc3ccccc3)CC2)nc1CN1CCCCC1=O [Example 64, Ethyl 6-{4-[(anilinosulfonyl)carbamoyl]piperidin-1-yl}-5-cyano-2-[(2-oxopiperidin-1-yl)methyl]nicotinate]	0.14
CCOC(=O)c1cc(C#N)c(N2CCC(C(=O)NS(=O)(=O)CC3CCCCC3)CC2)nc1CN1CCCC1=O [Example 65, Ethyl 5-cyano-6-(4-{[(cyclohexylmethyl)sulfonyl]carbamoyl}piperidin-1-yl)-2-[(2-oxopyrrolidin-1-yl)methyl]nicotinate]	0.021
CCOC(=O)c1cc(C#N)c(N2CCC(C(=O)NS(=O)(=O)Cc3ccc(SC(F)(F)F)cc3)CC2)nc1CN1CCCC1=O [Example 66, Ethyl 5-cyano-2-[(2-oxopyrrolidin-1-yl)methyl]-6-{4-[({4-[(trifluoromethyl)thio]benzyl}sulfonyl)carbamoyl]piperidin-1-yl}nicotinate]	0.033
CCOC(=O)c1cc(C#N)c(N2CCC(C(=O)NS(=O)(=O)Cc3ccc(F)cc3F)CC2)nc1CN1CCCCC1=O [Example 67, Ethyl 5-cyano-6-(4-{[(2,4-difluorobenzyl)sulfonyl]carbamoyl}piperidin-1-yl)-2-[(2-oxopiperidin-1-yl)methyl]nicotinate]	0.02
CCOC(=O)c1cc(C#N)c(N2CCC(C(=O)NS(=O)(=O)Cc3ccc(OC)cc3)CC2)nc1CN1CCCCC1=O [Example 68, Ethyl 5-cyano-6-(4-{[(4-methoxybenzyl)sulfonyl]carbamoyl}piperidin-1-yl)-2-[(2-oxopiperidin-1-yl)methyl]nicotinate]	0.024
CCOC(=O)c1cc(C#N)c(N2CCC(C(=O)NS(=O)(=O)Cc3ccc(C(C)C)cc3)CC2)nc1CN1CCCCC1=O [Example 69, Ethyl 5-cyano-6-(4-{[(4-isopropylbenzyl)sulfonyl]carbamoyl}piperidin-1-yl)-2-[(2-oxopiperidin-1-yl)methyl]nicotinate]	0.082
